Source: ChEMBL document CHEMBL5108010, “Structure-activity relationship studies on divalent naphthalene diimide G quadruplex ligands with anticancer and antiparasitic activity” (Bioorg Med Chem, 2022)
“And” between values parts separate entries of the source, which are not always exact repeats. Equal entries are not always repeated.

Assays:
[1] = (§1) Cytotoxicity against human MRC5 cells assessed as inhibition of cell proliferation incubated for 72 hrs by alamar blue assay; assay type: toxicity, cell-based; conditions: human, MRC5 cells
HeLa = test: Cytotoxicity against human HeLa cells assessed as inhibition of cell proliferation incubated for 72 hrs by alamar blue assay; assay type: functional, cell-based
Trypanosoma brucei = test: Antitrypanosomal activity against Trypanosoma brucei bloodstream form assessed as inhibition of parasite growth incubated for 72 hrs by alamar blue assay; assay type: functional, organism-based
Leishmania major = test: Antileishmanial activity against Leishmania major (MHOM/IL/80/Friedlin) promastigotes assessed as inhibition of parasite growth incubated for 72 hrs by MTT assay; assay type: functional, organism-based
[2] = Selectivity index, ratio of IC50 for cytotoxicity against human MRC5 cells to IC50 for cytotoxicity against human HeLa cells; assay type: toxicity, cell-based; conditions: for selectivity ratio: MRC5 cells versus HeLa cells, read-out: Ratio IC50
[3] = Selectivity index, ratio of IC50 for cytotoxicity against human MRC5 cells to IC50 for antitrypanosomal activity against Trypanosoma brucei bloodstream form; assay type: toxicity, cell-based; conditions: for selectivity ratio: MRC5 cells versus Trypanosoma brucei bloodstream form, read-out: Ratio IC50
[4] = Selectivity index, ratio of IC50 for cytotoxicity against human MRC5 cells to IC50 for antileishmanial activity against Leishmania major (MHOM/IL/80/Friedlin) promastigotes; assay type: toxicity, cell-based; conditions: read-out: Ratio IC50
Quadruplex DNA [5] = test: Binding affinity to G-quadruplex telomeric DNA F21T (5'-duplex GGG TTAGGG TTAGGG TTAGGG-3') (unknown origin) assessed as stabilization by measuring change in melting temperature at 10 uM in potassium buffer by FRET melting assay; assay type: nucleic-acid assay
Quadruplex DNA [6] = test: Binding affinity to G-quadruplex telomeric DNA F21T (5'-duplex GGG TTAGGG TTAGGG TTAGGG-3') (unknown origin) assessed as stabilization by measuring change in melting temperature at 10 uM in sodium buffer by FRET melting assay; assay type: nucleic-acid assay
Quadruplex DNA [7] = test: Binding affinity to G-quadruplex telomeric DNA FMycT (5'-duplex GGG TTAGGG TTAGGG TTAGGG-3') (unknown origin) assessed as stabilization by measuring change in melting temperature at 10 uM in potassium buffer by FRET melting assay; assay type: nucleic-acid assay
Quadruplex DNA [8] = test: Binding affinity to Trypanosoma brucei G-quadruplex telomeric DNA FEBR1T (5'-duplex GGG TTAGGG TTAGGG TTAGGG-3') assessed as stabilization by measuring change in melting temperature at 10 uM in potassium buffer by FRET melting assay; assay type: nucleic-acid assay
[9] = Binding affinity to hairpin duplex DNA F10T (unknown origin) assessed as stabilization by measuring change in melting temperature at 10 uM in potassium buffer by FRET melting assay
Quadruplex DNA [10] = test: Binding affinity to G-quadruplex telomeric DNA F21T (5'-duplex GGG TTAGGG TTAGGG TTAGGG-3') (unknown origin) assessed as stabilization by measuring change in melting temperature at 1 uM in potassium buffer by FRET melting assay; assay type: nucleic-acid assay
Quadruplex DNA [11] = test: Binding affinity to G-quadruplex telomeric DNA F21T (5'-duplex GGG TTAGGG TTAGGG TTAGGG-3') (unknown origin) assessed as stabilization by measuring change in melting temperature at 1 uM in sodium buffer by FRET melting assay; assay type: nucleic-acid assay
Quadruplex DNA [12] = test: Binding affinity to G-quadruplex telomeric DNA FMycT (5'-duplex GGG TTAGGG TTAGGG TTAGGG-3') (unknown origin) assessed as stabilization by measuring change in melting temperature at 1 uM in potassium buffer by FRET melting assay; assay type: nucleic-acid assay
Quadruplex DNA [13] = test: Binding affinity to Trypanosoma brucei G-quadruplex telomeric DNA FEBR1T (5'-duplex GGG TTAGGG TTAGGG TTAGGG-3') assessed as stabilization by measuring change in melting temperature at 1 uM in potassium buffer by FRET melting assay; assay type: nucleic-acid assay
[14] = Binding affinity to hairpin duplex DNA F10T (unknown origin) assessed as stabilization by measuring change in melting temperature at 1 uM in potassium buffer by FRET melting assay
MRC5 = test: as §1; assay type: toxicity, cell-based; conditions: mrc5
[15] = Leishmania major, MHOM/IL/80/Friedlin, 72 h

Compound | IC50 (Trypanosoma brucei; Trypanosoma brucei, 72 h) [µM] | ΔTm (Quadruplex DNA [5]) | ΔTm (Quadruplex DNA [6]) | ΔTm (Quadruplex DNA [7]) | ΔTm (Quadruplex DNA [8]) [°C] | ΔTm [9] | IC50 at 72 h [1] [µM] | IC50 (HeLa; Homo sapiens, HeLa, 72 h) [µM] | IC50 (Leishmania major; [15]) [µM] | selectivity ratio [2] | selectivity ratio [3] | selectivity ratio [4] | other results
C[n+]1cccc2c(N3C(=O)c4ccc5c6c(ccc(c46)C3=O)C(=O)N(c3cccc4c3ccc[n+]4C)C5=O)cccc21 | 0.35 | 2 °C | 1.4 °C | 0.6 °C | 3 | 0.5 °C | 0.28 | 24.2 | 1.86 | 0.011 | 0.79 | 0.15 | –
C[n+]1cc(N2C(=O)c3ccc4c5c(ccc(c35)C2=O)C(=O)N(c2cc3ccccc3[n+](C)c2)C4=O)cc2ccccc21 | 19.7 | 0.3 °C | 0.4 °C | 1.2 °C | -0.9 | 0.1 °C | 3.41 | 64.8 | 52.1 | 0.053 | 0.17 | 0.065 | –
CN1CCN(CCCN2C(=O)c3ccc4c5c(ccc(c35)C2=O)C(=O)N(CCCN2CCN(C)CC2)C4=O)CC1 | 0.61 | 20 °C | 2 °C | 13 °C | 11 | 3 °C | 3.9 | 0.41 | 0.47 | – | – | – | –
C[n+]1ccc(N2C(=O)c3ccc4c5c(ccc(c35)C2=O)C(=O)N(c2cc[n+](C)cc2)C4=O)cc1 | 48.7 | -0.4 °C | 0 °C | -3.5 °C | -0.5 | -0.2 °C | > 63.9 | > 63.9 | > 63.9 | – | > 1.31 | – | –
C[n+]1cccc2cc(N3C(=O)c4ccc5c6c(ccc(c46)C3=O)C(=O)N(c3ccc4c(ccc[n+]4C)c3)C5=O)ccc21 | 3.71 | 4.6 °C | 3.5 °C | 11 °C | 2.5 | 1.4 °C | 1.15 | 37 | 16.8 | 0.031 | 0.3 | 0.068 | –
C[n+]1ccc(-c2c3nc(c(-c4cc[n+](C)cc4)c4ccc([nH]4)c(-c4cc[n+](C)cc4)c4ccc([nH]4)c(-c4cc[n+](C)cc4)c4nc2C=C4)C=C3)cc1 | – | – | – | – | – | – | – | – | – | – | – | – | ΔTm (Quadruplex DNA [10]): 28.1 °C; ΔTm (Quadruplex DNA [11]): 34.2 °C; ΔTm (Quadruplex DNA [12]): 27.5 °C; ΔTm (Quadruplex DNA [13]): 28 °C; ΔTm [14]: 7.2 °C
CN1CCN(C(C)(C)CN2C(=O)c3ccc4c5c(ccc(c35)C2=O)C(=O)N(CC(C)(C)N2CCN(C)CC2)C4=O)CC1 | 0.96 | 20.7 °C | 10.2 °C | 14.8 °C | 4 | 0.2 °C | 3.38 | 4.47 | 24.6 | 0.76 | 3.5 | 0.14 | –
C[n+]1cccc(N2C(=O)c3ccc4c5c(ccc(c35)C2=O)C(=O)N(c2ccc[n+](C)c2)C4=O)c1 | 44.1 | 0.5 °C | 1.3 °C | -1.6 °C | 0.7 | 0 °C | 18.2 | > 63.9 | > 63.9 | – | 0.41 | < 0.28 | –
CN1CCN(CC2(CN3C(=O)c4ccc5c6c(ccc(c46)C3=O)C(=O)N(CC3(CN4CCN(C)CC4)CC3)C5=O)CC2)CC1 | 0.42 | 18.5 °C | 7.7 °C | 15 °C | 15.5 | 0.5 °C | 1.51 | 1.77 | 12.7 | 0.85 | 3.6 | 0.12 | –

The next lines start with results.

IC50 (Trypanosoma brucei; Trypanosoma brucei, 72 h) [µM] | ΔTm (Quadruplex DNA [5]) | ΔTm (Quadruplex DNA [6]) | ΔTm (Quadruplex DNA [7]) | ΔTm (Quadruplex DNA [8]) [°C] | ΔTm [9] | Compound | IC50 at 72 h [1] [µM] | IC50 (HeLa; Homo sapiens, HeLa, 72 h) [µM] | IC50 (Leishmania major; [15]) [µM] | selectivity ratio [2] | selectivity ratio [3] | selectivity ratio [4] | other results
0.98 | 13 °C | 4.9 °C | 20.1 °C | 9 | 5 °C | C[n+]1ccc(CN2C(=O)c3ccc4c5c(ccc(c35)C2=O)C(=O)N(Cc2cc[n+](C)cc2)C4=O)cc1 | 0.49 | 14.7 | 1.56 | 0.033 | 0.49 | 0.31 | –
0.13 | 28.5 °C | 18.8 °C | 22 °C | 24.8 | 4.5 °C | CC(CCN1C(=O)c2ccc3c4c(ccc(c24)C1=O)C(=O)N(CCC(C)N1CCN(C)CC1)C3=O)N1CCN(C)CC1 (stereo unspecified) | 1.24 | 0.35 | 0.24 | 3.54 | 9.5 | 5.17 | –
0.57 | 7 °C | -7 °C | 2 °C | 3.1 | 1 °C | O=C1c2ccc3c4c(ccc(c24)C(=O)N1CCCN1CCOCC1)C(=O)N(CCCN1CCOCC1)C3=O | 11.9 | 5.83 | 4.32 | 3.81 | 20.8 | 2.75 | –
14 | – | – | – | – | – | O=C1c2ccc3c4c(ccc(c24)C(=O)N1c1ccc(N2CCOCC2)cc1)C(=O)N(c1ccc(N2CCOCC2)cc1)C3=O | 68.4 | 46.4 | 45.4 | 1.47 | 4.88 | 1.5 | –
51.7 | 0.1 °C | 0.9 °C | 0.1 °C | 0.7 | 0.3 °C | O=C1c2ccc3c4c(ccc(c24)C(=O)N1CC(c1ccccn1)N1CCOCC1)C(=O)N(CC(c1ccccn1)N1CCOCC1)C3=O (stereo unspecified) | 83.1 | 96.9 | > 100 | 0.85 | 1.6 | < 0.83 | –
– | 1.6 °C and 1.9 °C | 1.4 °C and 1.9 °C | 0.9 °C and 2.3 °C | – | 0.1 °C and -0.3 °C | CN1CCN(c2ccccc2N2C(=O)c3ccc4c5c(ccc(c35)C2=O)C(=O)N(c2ccccc2N2CCN(C)CC2)C4=O)CC1 | 1.5 | 1.21 | – | 1.23 | – | – | IC50 (MRC5): 1.23 µM; IC50 (HeLa; hela): 0.74 µM; IC50 (Trypanosoma brucei): 0.048 µM and 0.11 µM; IC50 (Leishmania major): 0.79 µM and 3.11 µM; Ratio IC50 [2]: 1.66; Ratio IC50 [3]: 30.69 and 10.53
0.17 | 20.5 °C | 9.2 °C | 13.2 °C | 17.5 | 1.7 °C | CC(CN1C(=O)c2ccc3c4c(ccc(c24)C1=O)C(=O)N(CC(C)N1CCN(C)CC1)C3=O)N1CCN(C)CC1 (stereo unspecified) | 1.4 | 1.68 | 8.08 | 0.83 | 8.2 | 0.17 | –
0.18 | 6.4 °C | 5.8 °C | 8 °C | 4.6 | 0.1 °C | CN1CCN(c2cccc(N3C(=O)c4ccc5c6c(ccc(c46)C3=O)C(=O)N(c3cccc(N4CCN(C)CC4)c3)C5=O)c2)CC1 | 1.48 | 0.47 | 0.33 | 3.09 | 7.91 | 4.41 | –
0.48 | 21.5 °C | 11.3 °C | 16 °C | 12 | 2.7 °C | CN1CCN(CCN2C(=O)c3ccc4c5c(ccc(c35)C2=O)C(=O)N(CCN2CCN(C)CC2)C4=O)CC1 | 6.78 | 1.06 | 1.68 | 6.4 | 14.2 | 4.04 | –
0.17 | – | – | – | – | – | O=C1c2ccc3c4c(ccc(c24)C(=O)N1c1ccccc1N1CCOCC1)C(=O)N(c1ccccc1N1CCOCC1)C3=O | 7.25 | 3.09 | 9.04 | 2.34 | 41.9 | 0.8 | –
